Marks after values point to notes of the source that are not given here.
What was measured:
[1] = tested on: male Sprague/Dawley (SD) rats; assay: Hemodynamic assessment (MAP) in rats treated with fluprostenol and/or IFN-γ; assay type: in vivo, rat; conditions: conscious rats, 14 days of treatment (FIG. 5)
Method: Hemodynamic assessment Thirteen days after treatment, rats were anesthetized with intraperitoreal injection of ketamine 80 mg/kg (Aveco Co., Inc., Fort Dodge, Iowa) and xylazine 10 mg/kg (Rugby Laboratories, Inc., Rockville Center, N.Y.). A catheter (PE-10 fused with PE 50) filled with heparin-saline solution (50 U/ml) was implanted into the abdominal aorta, via the right femoral artery, for measurement of mean arterial pressure (MAP) and heart rate (HR). The catheter was exteriorized and fixed at the back of the neck.
One day after catheterization, the arterial catheter was connected to a Model CP 10 pressure transducer (Century Technology Company, Inglewood, Calif., USA) that was coupled to a Grass Model 7 polygraph (Grass Instruments, Quincy, Mass., USA). MAP and HR were measured simultaneously in conscious, unrestrained rats.

[2] = tested on: adult rat cardiac myocytes; assay: Inhibition of phenylephrine-induced spreading response of adult myocytes; assay type: cell-based; conditions: IFN-γ 500 U/ml, PE 10^−5 M, 72 hr
Method: FIGS. 3A–3F Inhibition of phenylephedrine (PE)-induced spreading response by IFN-γ. Myocytes were pre-incubated with saline vehicle or IFN-γ (500 U/ml) on day of isolation. A second addition of vehicle or IFN-γ was performed 24h after isolation, along with the addition of either vehicle or PE (10^−5 M). After an additional 72 hr incubation, cells were fixed in glutaraldehyde, stained with eosin Y and viewed by fluorescence microscopy. A, B, C Cardiac myocytes after 4 days in culture: control, PE, and PE+IFN-γ, respectively. D, E, F Histographs showing maximum breadth of rod shaped cardiac myocytes versus percent frequency of breadth occurrence. The maximum breadth of rod-shaped cells was determined by fluorescence microscopy and imaging software. At least 200 rod shaped cells from a single experiment were examined per group. […] P<0.001 for all group comparisons. […]
Isolated adult rat myocytes were plated on laminin-coated plates at a density of 3×10^3 cells/ml. After 72 hours of appropriate stimulation, the cells were fixed with gluteraldehyde and stained with Eosin Y. Images of rod shaped cells were captured under fluorescent microscopy and maximum breadth was determined using imaging software (Simple 32, Compix Imaging, Mars, Pa.).

[3] = tested on: rats with pressure overload; assay: Arterial pressure and heart rate in rats with pressure overload; assay type: in vivo, rat
Source text: FIGS. 9A–9C Effects of IFN-γ on systolic arterial pressure, mean arterial pressure, and diastolic arterial pressure in rats with pressure overload. The number in parenthesis is the number of animals in each group. **P<0.01, compared to the sham group. Sham: sham-operated rats; Banded: aortic-banded rats; IFN: IFN-γ, SAP: systolic arterial pressure; MAP: mean arterial pressure; DAP: diastolic arterial pressure.
Experimental protocol in rats with pressure overload The rats with aortic banding randomly received subcutaneous injection of IFN-γ at 0.08 mg/k twice a day for one day before surgery and for 14 days after surgery. Sham animals were not treated. Thirteen days after treatment, a catheter was implanted into the right carotid artery under anesthesia as indicated above. One day after implantation, arterial pressure and HR were measured in conscious rats. The heart and other organs including the liver, kidney, and spleen were removed, weighed, and fixed in 10% buffered formalin for pathological studies. The left ventricle was quickly dissected and frozen with liquid nitrogen in some animals and stored at −80° C. for assessment of gene expression.

IFN-γ: recombinant mouse IFN-γ (Genentech, Inc., South San Francisco, Calif., or Genzyme, Cambridge, Mass.)
Effect of IFN-γ on MAP of animals treated with fluprostenol [1]: did not affect the MAP
Mean arterial pressure (MAP) compared to vehicle [1]: had no effect on MAP
Inhibition of phenylephrine-induced myocyte spreading [2]: can also inhibit spreading induced by phenylephrine
Incremental increase in arterial pressure (MAP, systolic, diastolic) in banded rats, IFN-γ vs vehicle ([3]; FIG. 9): not different
HR, heart rate ([3]; pressure overload, conscious rats, IFN-γ 0.08 mg/kg s.c. twice a day, mean ± SEM): 418 ± 19* bpm

— US6989364B1, “Methods for treating cardiac hypertrophy by administering IFN-γ” (Genentech, Inc., priority 1998, dated 2006)
